Holding throughout (assay): drug sensitivity score (DSS) from 5-dose viability curve (DSS (area-based score, 0 = no response)); higher = more sensitive (stronger viability inhibition); extreme values may be limits of the assay
The subject of assay [1] is MDCK p60AmotL2-inducible + doxycycline (p60AmotL2 expressing). Particulars: doxycycline: 10 ng/mL; 72 h. In outline:
(§1)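 Two MDCK lines, parental and doxycycline-inducible, received doxycycline at 10 ng/mL in the medium before being plated at 2000 cells/well onto a pre-spotted 384-well oncology library of 528 drugs at five doses (1-10,000 nM). Incubation lasted 72 h at 37 °C. Viability was read by CellTiter-Glo luminescence, scaled per plate between vehicle and positive controls, and converted to drug sensitivity scores through Breeze curve fitting.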

For assay [2], the system named is MDCK wild-type + doxycycline. The note with it: doxycycline: 10 ng/mL; 72 h. In outline: as §1
The subject of assay [3] is MDCK wild-type - doxycycline. Particulars: doxycycline: none; 72 h. A digest of the protocol: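 Drug sensitivity scores came from Breeze pipeline dose-response fits of CellTiter-Glo luminescence, scaled per plate between vehicle and positive controls. The assay used parental MDCK cells without doxycycline at 2000 cells/well, exposed for 72 h to 528 oncology drugs at five doses (1-10,000 nM).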

The structures appear in SMILES notation.

Take `COc1cc(N2CCN(C)CC2)ccc1Nc1nccc(-c2cn(C)c3cnccc23)n1` [AZ191]: the drug sensitivity score stood at 2.2 in assay [1], 2.5 in assay [2] and 0 in assay [3].
With `COc1cc(OC2CCN(C)CC2)ccc1Nc1ncc2c(n1)n(C1CCCC1)c(=O)n2C` [AZ 3146], the drug sensitivity score in assay [1] came to 6.3; in assay [2] it was 5.1; in assay [3], 5.1.
Regarding `CN(C)CCCOc1ccc(-c2ccc3ncc4c(c3c2)n(C2CCOCC2)c(=O)n4C)cn1` [AZD0156], the values for the drug sensitivity score in assay [1], in assay [2] and in assay [3] were 1, 0 and 0, respectively.
On to `N[C@@H]1CCCN(c2c(/C=C3\SC(=O)NC3=O)cccc2-c2ccccc2)C1` [AZD1208], for which the drug sensitivity score in assay [1] stood at 1; in assay [2] it was 0; in assay [3], 0.
Turning to `Cc1cc(Nc2nc(N[C@@H](C)c3ncc(F)cn3)ncc2Cl)[nH]n1` [AZD1480], the drug sensitivity score came to 0.2 in assay [1], 0 in assay [2] and 0 in assay [3].
Consider `C=CCn1c(=O)c2cnc(Nc3ccc(N4CCN(C)CC4)cc3)nc2n1-c1cccc(C(C)(C)O)n1` [AZD1775], for which the drug sensitivity score in assay [1] was 12.9; in assay [2] it was 15.9; in assay [3] it was 12.1.
Regarding `COc1cc2ncnc(Nc3cccc(Cl)c3F)c2cc1OC(=O)N1CCN(C)C[C@H]1C` [AZD3759], the drug sensitivity score in assay [1] came out at 6.6; in assay [2], 0; in assay [3], 0.
With `Cc1[nH]nc(C(F)(F)F)c1Cc1sc2c(c1C(=O)N1C[C@](C)(O)CO1)c(=O)n(C)c(=O)n2C(C)C` [AZD3965], the drug sensitivity score was determined as 4.5 in assay [1], 0 in assay [2] and 0 in assay [3].
For `COc1cc(CCc2cc(NC(=O)c3ccc(N4CC(C)NC(C)C4)cc3)n[nH]2)cc(OC)c1` (configuration not stated) [AZD4547], the drug sensitivity score in assay [1], in assay [2] and in assay [3] was 0 each time.
For the molecule `C[C@@H]1COCCN1c1cc(C2([S@](C)(=N)=O)CC2)nc(-c2cc[nH]c3nccc2-3)n1` [AZD6738], the figures for the drug sensitivity score in assay [1], in assay [2] and in assay [3] were 6.7, 3.4 and 1.3, respectively.
Turning to `CN(C)C(=O)c1ccc(S(=O)(=O)c2ccc(NC(=O)[C@@](C)(O)C(F)(F)F)c(Cl)c2)cc1` [AZD7545], the drug sensitivity score in assay [1], in assay [2] and in assay [3] was 0 in each case.
Consider `NC(=O)Nc1cc(-c2cccc(F)c2)sc1C(=O)N[C@H]1CCCNC1` [AZD7762], for which the drug sensitivity score in assay [1] was determined as 0.3; in assay [2], 0.2; in assay [3], 0.
The like results for `COc1ccc(-c2ccc3c(N4CCOC[C@@H]4C)nc(N4CCOC[C@@H]4C)nc3n2)cc1CO` [AZD8055] were, in that order, 22.5, 17.8 and 14.9.
For the molecule `N#Cc1ccc2[nH]c(O)c(-c3ccc(CN4CCOCC4)cn3)c2c1` [AZD-1080], the drug sensitivity score in assay [1], in assay [2] and in assay [3] was 0 throughout.
For the molecule `Cc1ncc(-c2ccnc(Nc3ccc(S(C)(=O)=O)cc3)n2)n1C(C)C` [AZD-5438], the drug sensitivity score in assay [1] is 9.1; in assay [2], 13.1; in assay [3], 9.9.
`Cc1cc([C@@H](C)Nc2ccccc2C(=O)O)c2nc(N3CCOCC3)cc(=O)n2c1` [AZD-6482]: the drug sensitivity score in assay [1], in assay [2] and in assay [3] was 0 throughout.
`C[C@@H](Nc1cc(F)cc(F)c1)c1cc(C(=O)N(C)C)cc2c(=O)cc(N3CCOCC3)oc12` [AZD-8186]: the drug sensitivity score came out at 1.4 in assay [1], 0 in assay [2] and 0 in assay [3].
For `CCN1CCN(Cc2ccc(Nc3ncc(F)c(-c4cc(F)c5nc(C)n(C(C)C)c5c4)n3)nc2)CC1` [Abemaciclib], the results for the drug sensitivity score in assay [1], in assay [2] and in assay [3] were 7.3, 5.6 and 3.3, respectively.
In the case of `CN(C)Cc1c(C(=O)NCCOc2ccc(C(=O)NO)cc2)oc2ccccc12` [Abexinostat], the results for the drug sensitivity score in assay [1], in assay [2] and in assay [3] were 18.8, 17.5 and 15.6, respectively.
Turning to `C[C@]12CC[C@H](O)CC1=CC[C@@H]1[C@@H]2CC[C@]2(C)C(c3cccnc3)=CC[C@@H]12` [Abiraterone], the drug sensitivity score in assay [1], in assay [2] and in assay [3] was 0 each time.
Regarding `CC#CC(=O)N1CCC[C@H]1c1nc(-c2ccc(C(=O)Nc3ccccn3)cc2)c2c(N)nccn12` [Acalabrutinib], the drug sensitivity score in assay [1], in assay [2] and in assay [3] was 0 throughout.
Regarding `COc1cc(C)c(/C=C/C(C)=C/C=C/C(C)=C/C(=O)O)c(C)c1C` [Acitretin], the drug sensitivity score was found to be 0 in assay [1], 0 in assay [2] and 3.6 in assay [3].
For the molecule `CN(C)C/C=C/C(=O)Nc1cc2c(Nc3ccc(F)c(Cl)c3)ncnc2cc1O[C@H]1CCOC1` [Afatinib], the drug sensitivity score in assay [1] turned out to be 18.3; in assay [2], 3.5; in assay [3], 4.2.
In the case of `Cn1ncc(Cl)c1-c1cc(C(=O)N[C@H](CN)Cc2cccc(F)c2)sc1Cl` [Afuresertib], the drug sensitivity score in assay [1], in assay [2] and in assay [3] was 0 each time.
Consider `COc1cccc2c1C(=O)c1c(O)c3c(c(O)c1C2=O)C[C@@](O)(/C(CO)=N/NC(=O)CCCCCN1C(=O)C=CC1=O)C[C@@H]3O[C@H]1C[C@H](N)[C@H](O)[C@H](C)O1` [Aldoxorubicin], for which the drug sensitivity score is 11.2 in assay [1], 8.6 in assay [2] and 4.5 in assay [3].
Regarding `CCc1cc2c(cc1N1CCC(N3CCOCC3)CC1)C(C)(C)c1[nH]c3cc(C#N)ccc3c1C2=O` [Alectinib], the drug sensitivity score in assay [1], in assay [2] and in assay [3] was 0 throughout.
With `COc1cc(Nc2ncc3c(n2)-c2ccc(Cl)cc2C(c2c(F)cccc2OC)=NC3)ccc1C(=O)O` [Alisertib], the drug sensitivity score in assay [1] is 10.6; in assay [2], 0; in assay [3] it was 0.
In the case of `Oc1ncnc2[nH]ncc12` [Allopurinol], the drug sensitivity score in assay [1], in assay [2] and in assay [3] was 0 throughout.
Turning to `Cc1nc(NC(=O)N2CCC[C@H]2C(N)=O)sc1-c1ccnc(C(C)(C)C(F)(F)F)c1` [Alpelisib], the results for the drug sensitivity score in assay [1], in assay [2] and in assay [3] were 1.6, 0 and 0.7, respectively.
Consider `O=C(Nc1cc(Oc2cc(F)c(NC(=O)C3(C(=O)Nc4ccc(F)cc4)CC3)cc2F)ccn1)C1CC1` [Altiratinib], for which the drug sensitivity score in assay [1] is 8; in assay [2], 0; in assay [3], 0.
As for `CN1CC[C@H](c2c(O)cc(O)c3c(=O)cc(-c4ccccc4Cl)oc23)[C@H](O)C1` [Alvocidib], the drug sensitivity score came to 18.3 in assay [1], 20.9 in assay [2] and 21.5 in assay [3].
On to `CCN(CC)CCNC(=O)c1c(C)[nH]c(/C=C2\C(=O)Nc3ccc(-c4csc(-c5ccccc5)n4)cc32)c1C` [Amcasertib], for which the drug sensitivity score in assay [1], in assay [2] and in assay [3] was 0 throughout.
For `CCC1(c2ccc(N)cc2)CCC(=O)NC1=O` (configuration not stated) [Aminoglutethimide], the drug sensitivity score in assay [1], in assay [2] and in assay [3] was 0 throughout.
For `COc1cc(NS(C)(=O)=O)ccc1Nc1c2ccccc2nc2ccccc12` [Amsacrine], the drug sensitivity score came out at 15.3 in assay [1], 8.8 in assay [2] and 7.6 in assay [3].
The like results for `S=C(NCc1ccc2c(c1)OCO2)N1CCN(c2ncnc3c2oc2ccccc23)CC1` [Amuvatinib] were, in that order, 6, 3.1 and 2.3.
Turning to `O=C1CN2Cc3c(ccc(Cl)c3Cl)N=C2N1` [Anagrelide], the drug sensitivity score in assay [1], in assay [2] and in assay [3] was 0 throughout.
As to `CC(C)(C#N)c1cc(Cn2cncn2)cc(C(C)(C)C#N)c1` [Anastrozole], the drug sensitivity score in assay [1], in assay [2] and in assay [3] was 0 throughout.
On to `CNC(=O)c1ccc(N2C(=S)N(c3cnc(C#N)c(C(F)(F)F)c3)C(=O)C23CCC3)cc1F` [Apalutamide], for which the drug sensitivity score in assay [1], in assay [2] and in assay [3] was 0 each time.
With `N#CC1(c2ccc(NC(=O)c3cccnc3NCc3ccncc3)cc2)CCCC1` [Apatinib], the drug sensitivity score in assay [1] amounted to 0; in assay [2] it was 2.7; in assay [3], 0.

Values taken from the supplement of paper PMC11003180.
